# In US8575364B2, “Modulators of serotonin receptor” (Janssen Pharmaceutica NV, priority 2008, dated 2013):
# Where a name gives a salt, the structure may show the parent alone.
# Biological target: rat 5-HT7 receptors (Rattus norvegicus (Rat), UniProt P32305)
# Experiment: r5-HT7 competitive radioligand binding assay ([3H]5-CT)
# Settings: membrane fractions of HEK-293 cells recombinantly expressing rat 5-HT7
# Experimental: Compound affinity for the rat 5-HT7 receptor subtype was evaluated by competitive radioligand binding assays using 5-carboxamido[^3H]tryptamine ([^3H]5-CT) (Amersham Biosciences, cat. 90000403) detection. HitHunter™ cAMP assays are in-vitro based competitive immunoassays. […] Cells were pre-incubated with test compounds for 10 minutes. For agonistic testing, the concentration of test compound that produced a half-maximal response is represented by the EC50 value. Compounds were assayed in their free form or as salts, as indicated in the Examples section above.
# rat 5-HT7 receptors, sequence (P32305 1-435): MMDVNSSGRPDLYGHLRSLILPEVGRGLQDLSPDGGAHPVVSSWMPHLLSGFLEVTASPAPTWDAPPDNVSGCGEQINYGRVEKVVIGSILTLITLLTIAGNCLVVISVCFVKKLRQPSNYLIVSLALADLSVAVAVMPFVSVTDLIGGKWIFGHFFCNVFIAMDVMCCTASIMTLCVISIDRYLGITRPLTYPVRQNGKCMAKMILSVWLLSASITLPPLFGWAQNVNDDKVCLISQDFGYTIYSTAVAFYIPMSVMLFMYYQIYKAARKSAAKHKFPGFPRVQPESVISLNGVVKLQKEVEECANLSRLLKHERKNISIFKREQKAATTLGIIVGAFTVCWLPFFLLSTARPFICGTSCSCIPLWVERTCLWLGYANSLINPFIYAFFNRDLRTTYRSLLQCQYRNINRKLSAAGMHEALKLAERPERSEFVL
row,SMILES,Ki [nM]
1,"COc1ccc(-c2ccccc2)cc1OC1CNC1 [Example 15, 3-(4-Methoxy-biphenyl-3-yloxy)-azetidine]",120
2,"COc1ccc(-c2ccccc2OC)cc1OC1CNC1 [Example 9, 3-(4,2′-Dimethoxy-biphenyl-3-yloxy)-azetidine]",50
3,"N#Cc1ccc(-c2ccccc2)cc1OC1CNC1 [Example 29, 3-(Azetidin-3-yloxy)-biphenyl-4-carbonitrile]",10000
4,"FC(F)(F)c1ccccc1-c1cccc(OC2CNC2)c1 [Example 20, 3-(2′-Trifluoromethyl-biphenyl-3-yloxy)-azetidine]",25.5
5,"Cc1ccc(-c2ccc(Cl)cc2C2CCNC2)cc1C (racemic) [Example 67, (±)-3-(4-Chloro-3′,4′-dimethyl-biphenyl-2-yl)-pyrrolidine]",120
6,"Cc1ccc(-c2ccccc2C2CCN(C)C2)cc1 (racemic) [Example 55, (±)-1-Methyl-3-(4′-methyl-biphenyl-2-yl)-pyrrolidine]",430
7,"Clc1ccc(-c2ccccc2C2CCNC2)cc1 (stereo not drawn) [Example 56, 3-(4′-Chloro-biphenyl-2-yl)-pyrrolidine]",180
8,"CCOc1ccc(-c2ccccc2C)cc1OC1CNC1 [Example 32, 3-(4-Ethoxy-2′-methyl-biphenyl-3-yloxy)-azetidine hydrochloride]",454
9,"c1ccc(-c2ccccc2C2CCNC2)cc1 (racemic) [Example 51, (±)-3-Biphenyl-2-yl-pyrrolidine]",120
10,"COc1ccc(-c2ccccc2OC(F)(F)F)cc1OC1CNC1 [Example 7, 3-(4-Methoxy-2′-trifluoromethoxy-biphenyl-3-yloxy)-azetidine]",10
11,"COc1ccc(-c2ccccc2C(F)(F)F)cc1OC1CCNCC1 [Example 69, 4-(4-Methoxy-2′-trifluoromethyl-biphenyl-3-yloxy)-piperidine]",59
12,"COc1ccc(-c2ccccc2)cc1OC1CCNCC1 [Example 68, 4-(4-Methoxy-biphenyl-3-yloxy)-piperidine]",1480
13,"COc1ccc(-c2cccc(C(F)(F)F)c2)cc1C1CCNC1 (racemic) [Example 46, (±)-3-(4-Methoxy-3′-trifluoromethyl-biphenyl-3-yl)-pyrrolidine]",117
14,"Cc1ccccc1-c1ccc(OC(C)C)c(OC2CNC2)c1 [Example 36, 3-(4-Isopropoxy-2′-methyl-biphenyl-3-yloxy)-azetidine]",10000
15,"Clc1cccc(-c2ccc(Cl)cc2C2CCNC2)c1 (racemic) [Example 65, (±)-3-(4,3′-Dichloro-biphenyl-2-yl)-pyrrolidine]",130
16,"COc1ccc(-c2c(Cl)cccc2C(F)(F)F)cc1OC1CNC1 [Example 10, 3-(2′-Chloro-4-methoxy-6′-trifluoromethyl-biphenyl-3-yloxy)-azetidine trifluoroacetate]",112
17,"Clc1ccccc1-c1cccc(OC2CNC2)c1 [Example 21, 3-(2′-Chloro-biphenyl-3-yloxy)-azetidine]",34.6
18,"Cc1ccc(-c2ccccc2C2CCNC2)cc1 (racemic) [Example 54, (±)-3-(4′-Methyl-biphenyl-2-yl)-pyrrolidine]",120
19,"COc1ccc(-c2ccccc2)cc1C1CCN(C)C1 (racemic) [Example 50, (±)-3-(4-Methoxy-biphenyl-3-yl)-1-methyl-pyrrolidine]",150
20,"Cc1ccccc1-c1ccc(C#N)c(OC2CNC2)c1 [Example 30, 3-(Azetidin-3-yloxy)-2′-methyl-biphenyl-4-carbonitrile]",508
21,"COc1ccc(-c2ccccc2Cl)cc1OC1CN(C(C)C)C1 [Example 18, 3-(2′-Chloro-4-methoxy-biphenyl-3-yloxy)-1-isopropyl-azetidine trifluoroacetate]",533
22,"COc1ccc(-c2ccc(C)c(C)c2)cc1OC1CNC1 [Example 14, 3-(4-Methoxy-3′,4′-dimethyl-biphenyl-3-yloxy)-azetidine]",250
23,"COc1ccc(-c2ccccc2C(F)(F)F)cc1C1CCNC1 (racemic) [Example 47, (±)-3-(4-Methoxy-2′-trifluoromethyl-biphenyl-3-yl)-pyrrolidine]",7.98
24,"COc1ccccc1-c1ccccc1C1CCN(C)C1 (racemic) [Example 62, (±)-3-(2′-Methoxy-biphenyl-2-yl)-1-methyl-pyrrolidine]",730
25,"COc1ccc(-c2ccccc2C#N)cc1OC1CNC1 [Example 3, 3′-(Azetidin-3-yloxy)-4′-methoxy-biphenyl-2-carbonitrile trifluoroacetate]",33.9
26,"Cc1cccc(-c2ccccc2C2CCNC2)c1 (racemic) [Example 52, (±)-3-(3′-Methyl-biphenyl-2-yl)-pyrrolidine]",80.2
27,"Cc1cccc(-c2cccc(OC3CNC3)c2)c1 [Example 22, 3-(3′-Methyl-biphenyl-3-yloxy)-azetidine]",752

row,SMILES,Ki [nM]
1,"CCN(CC)C(=O)c1ccc(-c2ccccc2C(F)(F)F)cc1OC1CNC1 [Example 37, 3-(Azetidin-3-yloxy)-2′-trifluoromethyl-biphenyl-4-carboxylic acid diethylamide]",2270
2,"COc1ccc(-c2cc(C)ccc2C)cc1OC1CNC1 [Example 16, 3-(4-Methoxy-2′,5′-dimethyl-biphenyl-3-yloxy)-azetidine]",114
3,"Cc1cccc(-c2ccc(Cl)cc2OC2CNC2)c1 [Example 38, 3-(4-Chloro-3′-methyl-biphenyl-2-yloxy)-azetidine]",189
4,"COc1ccc(-c2ccccc2OC(F)(F)F)cc1C1CCNC1 (racemic) [Example 48, (±)-3-(4-Methoxy-2′-trifluoromethoxy-biphenyl-3-yl)-pyrrolidine]",19.8
5,"Cc1ccccc1-c1ccc(Cl)c(OC2CNC2)c1 [Example 26, 3-(4-Chloro-2′-methyl-biphenyl-3-yloxy)-azetidine trifluoroacetate]",15.5
6,"COc1ccc(-c2ccccc2Cl)cc1OC1CN(C2CCC2)C1 [Example 19, 3-(2′-Chloro-4-methoxy-biphenyl-3-yloxy)-1-cyclobutyl-azetidine trifluoroacetate]",300
7,"FC(F)(F)c1ccccc1-c1ccc(Cl)c(OC2CNC2)c1 [Example 25, 3-(4-Chloro-2′-trifluoromethyl-biphenyl-3-yloxy)-azetidine trifluoroacetate]",10.5
8,"Cc1cc(-c2ccc(Cl)cc2OC2CNC2)ccc1F [Example 41, 3-(4-Chloro-4′-fluoro-3′-methyl-biphenyl-2-yloxy)-azetidine]",470
9,"Cc1ccc(-c2ccc(Cl)cc2OC2CNC2)cc1C [Example 42, 3-(4-Chloro-3′,4′-dimethyl-biphenyl-2-yloxy)-azetidine]",210
10,"Cc1ccccc1-c1cccc(OC2CNC2)c1 [Example 23, 3-(2′-Methyl-biphenyl-3-yloxy)-azetidine]",67
11,"COc1ccc(-c2cccc(C)c2)cc1OC1CNC1 [Example 13, 3-(4-Methoxy-3′-methyl-biphenyl-3-yloxy)-azetidine]",1000
12,"N#Cc1ccc(-c2ccccc2C(F)(F)F)cc1OC1CNC1 [Example 28, 3-(Azetidin-3-yloxy)-2′-trifluoromethyl-biphenyl-4-carbonitrile]",127
13,"COc1ccc(-c2cccc(F)c2F)cc1C1CCNC1 (racemic) [Example 45, (±)-3-(2′,3′-Difluoro-4-methoxy-biphenyl-3-yl)-pyrrolidine]",52
14,"Clc1ccc(-c2ccccc2Cl)cc1OC1CNC1 [Example 24, 3-(4,2′-Dichloro-biphenyl-3-yloxy)-azetidine trifluoroacetate]",8.89
15,"Cc1ccccc1-c1ccc(OCC(F)(F)F)c(OC2CNC2)c1 [Example 33, 3-[2′-Methyl-4-(2,2,2-trifluoro-ethoxy)-biphenyl-3-yloxy]-azetidine]",525
16,"COc1ccc(-c2ccccc2C)cc1C1CCNC1 (racemic) [Example 43, (±)-3-(4-Methoxy-2′-methyl-biphenyl-3-yl)-pyrrolidine]",5.46
17,"Cc1cccc(-c2ccc(Cl)c(OC3CNC3)c2)c1 [Example 27, 3-(4-Chloro-3′-methyl-biphenyl-3-yloxy)-azetidine trifluoroacetate]",410
18,"Cc1ccc(-c2ccccc2C2CCNC2)cc1C (racemic) [Example 57, (±)-3-(3′,4′-Dimethyl-biphenyl-2-yl)-pyrrolidine]",55.9
19,"COc1ccc(-c2ccc(F)c(C)c2)cc1OC1CNC1 [Example 12, 3-(4′-Fluoro-4-methoxy-3′-methyl-biphenyl-3-yloxy)-azetidine]",770
20,"Cc1ccccc1-c1ccccc1C1CCN(C)C1 (racemic) [Example 60, (±)-1-Methyl-3-(2′-methyl-biphenyl-2-yl)-pyrrolidine]",330
21,"COc1ccc(-c2c(C)cccc2C)cc1OC1CNC1 [Example 6, 3-(4-Methoxy-2′,6′-dimethyl-biphenyl-3-yloxy)-azetidine trifluoroacetate]",8.2
22,"COc1ccc(-c2cccc(F)c2C)cc1C1CCNC1 (racemic) [Example 44, (±)-3-(3′-Fluoro-4-methoxy-2′-methyl-biphenyl-3-yl)-pyrrolidine]",19
23,"COc1ccc(-c2ccccc2)cc1C1CCNC1 (racemic) [Example 49, (±)-3-(4-Methoxy-biphenyl-3-yl)-pyrrolidine]",130
24,"COc1ccc(-c2ccc(F)cc2C)cc1OC1CNC1 [Example 2, 3-(4′-Fluoro-4-methoxy-2′-methyl-biphenyl-3-yloxy)-azetidine]",21
25,"Cc1ccccc1-c1ccc(OC2CCC2)c(OC2CNC2)c1 [Example 34, 3-(4-Cyclobutoxy-2′-methyl-biphenyl-3-yloxy)-azetidine]",667
26,"Cc1ccccc1-c1ccccc1C1CCNC1 (racemic) [Example 59, (±)-3-(2′-Methyl-biphenyl-2-yl)-pyrrolidine]",210
27,"COc1ccc(-c2ccc(C)cc2)cc1OC1CNC1 [Example 11, 3-(4-Methoxy-4′-methyl-biphenyl-3-yloxy)-azetidine]",760
